Results reported in PubChem BioAssay AID1259407 (Chemical Carcinogenesis Research Information System (CCRIS), 2018).
Calls of active or inactive are those of the source. How the calls were made is not given here.

Tested on: CCRIS mutagenicity, Ames/micronucleus/aberration tests
Assay: CCRIS mutagenicity studies
[1] = Test System: AMES SALMONELLA TYPHIMURIUM, Strain/Indicator: TA98, Metabolic Activation: HAMSTER, LIVER, S-9, AROCLOR 1254, Method: PREINCUBATION
[2] = Test System: AMES SALMONELLA TYPHIMURIUM, Strain/Indicator: TA98, Metabolic Activation: NONE, Method: PREINCUBATION
[3] = Test System: AMES SALMONELLA TYPHIMURIUM, Strain/Indicator: TA98, Metabolic Activation: RAT, LIVER, S-9, AROCLOR 1254, Method: PREINCUBATION
[4] = Test System: AMES SALMONELLA TYPHIMURIUM, Strain/Indicator: TA100, Metabolic Activation: HAMSTER, LIVER, S-9, AROCLOR 1254, Method: PREINCUBATION
[5] = Test System: AMES SALMONELLA TYPHIMURIUM, Strain/Indicator: TA100, Metabolic Activation: NONE, Method: PREINCUBATION
[6] = Test System: AMES SALMONELLA TYPHIMURIUM, Strain/Indicator: TA100, Metabolic Activation: RAT, LIVER, S-9, AROCLOR 1254, Method: PREINCUBATION
[7] = Test System: AMES SALMONELLA TYPHIMURIUM, Strain/Indicator: TA1535, Metabolic Activation: HAMSTER, LIVER, S-9, AROCLOR 1254, Method: PREINCUBATION
[8] = Test System: AMES SALMONELLA TYPHIMURIUM, Strain/Indicator: TA1535, Metabolic Activation: NONE, Method: PREINCUBATION
[9] = Test System: AMES SALMONELLA TYPHIMURIUM, Strain/Indicator: TA1535, Metabolic Activation: RAT, LIVER, S-9, AROCLOR 1254, Method: PREINCUBATION
[10] = Test System: AMES SALMONELLA TYPHIMURIUM, Strain/Indicator: TA1537, Metabolic Activation: HAMSTER, LIVER, S-9, AROCLOR 1254, Method: PREINCUBATION
[11] = Test System: AMES SALMONELLA TYPHIMURIUM, Strain/Indicator: TA1537, Metabolic Activation: NONE, Method: PREINCUBATION
[12] = Test System: AMES SALMONELLA TYPHIMURIUM, Strain/Indicator: TA1537, Metabolic Activation: RAT, LIVER, S-9, AROCLOR 1254, Method: PREINCUBATION
[13] = Test System: MOUSE LYMPHOMA, Strain/Indicator: L5178Y (TK+/TK-), Metabolic Activation: RAT, LIVER, S-9, AROCLOR 1254, Method: SUSPENSION/PLATE

CC[C@H]1OC(=O)[C@H](C)[C@@H](O[C@H]2C[C@@](C)(OC)[C@@H](O)[C@H](C)O2)[C@H](C)[C@@H](O[C@@H]2O[C@H](C)C[C@H](N(C)C)[C@H]2O)[C@](C)(O)C[C@@H](C)C(=O)[C@H](C)[C@@H](O)[C@]1(C)O
mutagenic call (End Point: AMES SALMONELLA TYPHIMURIUM, Test System: TA98, Metabolic Activation: NONE, Method: STANDARD PLATE): inactive; negative | mutagenic call (End Point: AMES SALMONELLA TYPHIMURIUM, Test System: TA100, Metabolic Activation: NONE, Method: STANDARD PLATE): inactive; negative | mutagenic call (End Point: IN VITRO CHROMOSOMAL ABERRATIONS, Test System: CHO CELLS, Metabolic Activation: NONE): inactive; negative; testing limited by solubility of the chemical | mutagenic call (End Point: IN VITRO CHROMOSOMAL ABERRATIONS, Test System: CHO CELLS, Metabolic Activation: RAT, LIVER, S-9, AROCLOR 1254): inactive; negative; testing limited by solubility of the chemical | mutagenic call [1]: inactive; negative | mutagenic call [2]: inactive; negative | mutagenic call [3]: inactive; negative | mutagenic call [4]: inactive; negative | mutagenic call [5]: inactive; negative | mutagenic call [6]: inactive; negative | mutagenic call [7]: inactive; negative | mutagenic call [8]: inactive; negative | mutagenic call [9]: inactive; negative | mutagenic call [10]: inactive; negative | mutagenic call [11]: inactive; negative | mutagenic call [12]: inactive; negative | mutagenic call [13]: inactive; negative

Nc1ncn[nH]1
mutagenic call (Test System: AMES SALMONELLA TYPHIMURIUM, Strain/Indicator: TA97, Metabolic Activation: HAMSTER, LIVER, S-9, AROCLOR 1254 (10 OR 30%), Method: PREINCUBATION): inactive; negative | mutagenic call (Test System: AMES SALMONELLA TYPHIMURIUM, Strain/Indicator: TA97, Metabolic Activation: NONE, Method: PREINCUBATION): inactive; negative | mutagenic call (Test System: AMES SALMONELLA TYPHIMURIUM, Strain/Indicator: TA97, Metabolic Activation: RAT, LIVER, S-9, AROCLOR 1254 (10 OR 30%), Method: PREINCUBATION): inactive; negative | mutagenic call (Test System: AMES SALMONELLA TYPHIMURIUM, Strain/Indicator: TA98, Metabolic Activation: HAMSTER, LIVER, S-9, AROCLOR 1254 (10 OR 30%), Method: PREINCUBATION): inactive; negative | mutagenic call [2]: inactive; negative | mutagenic call (Test System: AMES SALMONELLA TYPHIMURIUM, Strain/Indicator: TA98, Metabolic Activation: PROSTAGLANDIN H SYNTHASE, Method: PREINCUBATION): inactive; negative | mutagenic call (Test System: AMES SALMONELLA TYPHIMURIUM, Strain/Indicator: TA98, Metabolic Activation: RAT, LIVER, S-9, AROCLOR 1254 (10 OR 30%), Method: PREINCUBATION): inactive; negative | mutagenic call (Test System: AMES SALMONELLA TYPHIMURIUM, Strain/Indicator: TA100, Metabolic Activation: HAMSTER, LIVER, S-9, AROCLOR 1254 (10 OR 30%), Method: PREINCUBATION): inactive; negative | mutagenic call [5]: inactive; negative | mutagenic call (Test System: AMES SALMONELLA TYPHIMURIUM, Strain/Indicator: TA100, Metabolic Activation: RAT, LIVER, S-9, AROCLOR 1254 (10 OR 30%), Method: PREINCUBATION): inactive; negative | mutagenic call (Test System: AMES SALMONELLA TYPHIMURIUM, Strain/Indicator: TA1535, Metabolic Activation: HAMSTER, LIVER, S-9, AROCLOR 1254 (10 OR 30%), Method: PREINCUBATION): inactive; negative | mutagenic call [8]: inactive; negative | mutagenic call (Test System: AMES SALMONELLA TYPHIMURIUM, Strain/Indicator: TA1535, Metabolic Activation: RAT, LIVER, S-9, AROCLOR 1254 (5 OR 10%), Method: PREINCUBATION): inactive; negative | mutagenic call (Test System: AMES SALMONELLA TYPHIMURIUM, Strain/Indicator: TA1535, Metabolic Activation: RAT, LIVER, S-9, AROCLOR 1254 (30%), Method: PREINCUBATION): inactive; negative | mutagenic call (Test System: E. COLI, Strain/Indicator: WP2 UVRA, Metabolic Activation: HAMSTER, LIVER, S-9, AROCLOR 1254, Method: STANDARD PLATE): inactive; negative | mutagenic call (Test System: E. COLI, Strain/Indicator: WP2 UVRA, Metabolic Activation: HAMSTER, LIVER, S-9, Method: STANDARD PLATE): inactive; negative | mutagenic call (Test System: E. COLI, Strain/Indicator: WP2 UVRA, Metabolic Activation: MOUSE, LIVER, S-9, AROCLOR 1254, Method: STANDARD PLATE): inactive; negative | mutagenic call (Test System: E. COLI, Strain/Indicator: WP2 UVRA, Metabolic Activation: MOUSE, LIVER, S-9, Method: STANDARD PLATE): inactive; negative | mutagenic call (Test System: E. COLI, Strain/Indicator: WP2 UVRA, Metabolic Activation: NONE, Method: STANDARD PLATE): inactive; negative | mutagenic call (Test System: E. COLI, Strain/Indicator: WP2 UVRA, Metabolic Activation: RAT, LIVER, S-9, AROCLOR 1254, Method: STANDARD PLATE): inactive; negative | mutagenic call (Test System: E. COLI, Strain/Indicator: WP2 UVRA, Metabolic Activation: RAT, LIVER, S-9, Method: STANDARD PLATE): inactive; negative | mutagenic call (Test System: MOUSE LYMPHOMA, Strain/Indicator: L5178Y (TK+/TK-), Metabolic Activation: NONE, Method: SUSPENSION/PLATE): inactive; negative | mutagenic call [13]: inactive; negative | mutagenic call (Test System: MOUSE LYMPHOMA, Strain/Indicator: L5178Y (TK+/TK-), Metabolic Activation: RAT, LIVER, S-9, Method: SUSPENSION/PLATE): inactive; negative

Fc1ccc(F)c2c1ccc1ncccc12
mutagenic call (Test System: AMES SALMONELLA TYPHIMURIUM, Strain/Indicator: TA100, Metabolic Activation: RAT, LIVER, S-9, PHENOBARBITAL AND 5,6-BENZOFLAVONE, Method: PREINCUBATION): active; positive

COc1ccc(O)cc1
mutagenic call (Test System: AMES SALMONELLA TYPHIMURIUM, Strain/Indicator: TA97, Metabolic Activation: NONE, Method: STANDARD PLATE): inactive; negative | mutagenic call (Test System: AMES SALMONELLA TYPHIMURIUM, Strain/Indicator: TA97, Metabolic Activation: S-9, Method: STANDARD PLATE): inactive; negative | mutagenic call [1]: inactive; negative | mutagenic call [2]: inactive; negative | mutagenic call (Test System: AMES SALMONELLA TYPHIMURIUM, Strain/Indicator: TA98, Metabolic Activation: NONE, Method: STANDARD PLATE): inactive; negative | mutagenic call [3]: inactive; negative | mutagenic call (Test System: AMES SALMONELLA TYPHIMURIUM, Strain/Indicator: TA98, Metabolic Activation: S-9, Method: STANDARD PLATE): inactive; negative | mutagenic call [4]: inactive; negative | mutagenic call [5]: inactive; negative | mutagenic call (Test System: AMES SALMONELLA TYPHIMURIUM, Strain/Indicator: TA100, Metabolic Activation: NONE, Method: STANDARD PLATE): inactive; negative | mutagenic call [6]: inactive; negative | mutagenic call (Test System: AMES SALMONELLA TYPHIMURIUM, Strain/Indicator: TA100, Metabolic Activation: S-9, Method: STANDARD PLATE): inactive; negative | mutagenic call (Test System: AMES SALMONELLA TYPHIMURIUM, Strain/Indicator: TA102, Metabolic Activation: NONE, Method: STANDARD PLATE): inactive; negative | mutagenic call (Test System: AMES SALMONELLA TYPHIMURIUM, Strain/Indicator: TA102, Metabolic Activation: S-9, Method: STANDARD PLATE): inactive; negative | mutagenic call [7]: inactive; negative | mutagenic call [8]: inactive; negative | mutagenic call [9]: inactive; negative | mutagenic call [10]: inactive; negative | mutagenic call [11]: inactive; negative | mutagenic call [12]: inactive; negative | mutagenic call (Test System: E.COLI, Strain/Indicator: WP2 (PKM101), Metabolic Activation: NONE, Method: STANDARD PLATE): inactive; negative | mutagenic call (Test System: E.COLI, Strain/Indicator: WP2 (PKM101), Metabolic Activation: S-9, Method: STANDARD PLATE): inactive; negative
